Assays:
[1] = target: T1, Tyrosine-protein kinase JAK1 (Homo sapiens, UniProt P23458); assay: Selectivity interaction (KinomeScan (DiscoverX)) EUB0000666a JAK1; conditions: at 10 µM
[2] = target: Proto-oncogene tyrosine-protein kinase Src (Homo sapiens, UniProt P12931); assay: Selectivity interaction (KinaseProfiler screening (Millipore)) EUB0000601a SRC; conditions: at 3 µM
[3] = target: T2, Histone-lysine N-methyltransferase SMYD3 (Homo sapiens) (UniProt Q9H7B4); conditions: at 10 µM
T2 sequence (whole entry): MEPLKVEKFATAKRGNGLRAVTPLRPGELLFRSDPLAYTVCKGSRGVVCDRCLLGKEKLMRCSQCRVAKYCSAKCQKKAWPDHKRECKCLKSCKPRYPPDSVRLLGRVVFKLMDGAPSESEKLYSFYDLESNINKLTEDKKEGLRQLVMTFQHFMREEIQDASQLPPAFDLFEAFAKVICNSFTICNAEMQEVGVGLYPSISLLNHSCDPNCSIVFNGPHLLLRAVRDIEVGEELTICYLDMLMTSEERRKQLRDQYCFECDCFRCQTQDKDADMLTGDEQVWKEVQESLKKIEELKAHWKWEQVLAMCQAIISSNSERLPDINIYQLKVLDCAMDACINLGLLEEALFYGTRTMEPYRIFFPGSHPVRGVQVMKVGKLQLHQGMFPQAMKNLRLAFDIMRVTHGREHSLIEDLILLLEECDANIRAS

[4] = target: T3, Serine/threonine-protein kinase PAK 4 (Homo sapiens, UniProt O96013); assay: Selectivity interaction (KinomeScan (DiscoverX)) EUB0000229b PAK4; conditions: at 10 µM
T3 sequence (O96013 whole entry, looked up): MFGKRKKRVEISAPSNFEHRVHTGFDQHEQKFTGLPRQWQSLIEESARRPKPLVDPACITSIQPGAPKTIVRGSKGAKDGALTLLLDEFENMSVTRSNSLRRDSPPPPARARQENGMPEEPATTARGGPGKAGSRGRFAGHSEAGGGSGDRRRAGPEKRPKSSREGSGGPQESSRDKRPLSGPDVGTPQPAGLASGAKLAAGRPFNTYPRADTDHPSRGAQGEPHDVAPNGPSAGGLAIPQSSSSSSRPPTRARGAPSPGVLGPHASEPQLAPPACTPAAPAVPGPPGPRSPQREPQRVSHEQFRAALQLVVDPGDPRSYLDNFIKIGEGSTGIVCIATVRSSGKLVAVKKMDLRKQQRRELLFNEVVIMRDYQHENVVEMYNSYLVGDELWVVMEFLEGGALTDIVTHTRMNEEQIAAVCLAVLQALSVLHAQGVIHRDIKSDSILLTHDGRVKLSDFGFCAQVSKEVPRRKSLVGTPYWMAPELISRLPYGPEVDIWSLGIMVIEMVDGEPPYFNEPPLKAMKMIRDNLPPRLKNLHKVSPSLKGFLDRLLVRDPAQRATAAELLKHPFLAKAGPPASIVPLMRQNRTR

[5] = target: Gastrin/cholecystokinin type B receptor (Homo sapiens) (UniProt P32239); assay: Selectivity interaction (Eurofins CEREP Diversity Profile (receptors and ion channels)) EUB0000279b CCKBR; conditions: at 10 µM
[6] = target: Histamine H3 receptor (Homo sapiens, UniProt Q9Y5N1); assay: Selectivity interaction (Human histamine H3 receptor binding assay ) EUB0000877a HRH3
[7] = target: Insulin-like growth factor 1 receptor (Homo sapiens, UniProt P08069); conditions: at 10 µM
[8] = target: Mitogen-activated protein kinase 14 (Homo sapiens, UniProt Q16539); conditions: at 10 µM
[9] = target: Ribosomal protein S6 kinase alpha-1 (Homo sapiens, UniProt Q15418); assay: Selectivity interaction (ActivX KiNativ screen (kinase selectivity in THP-1 cell lysates)) EUB0000639a RPS6KA1; type: subcellular; conditions: lysate, at 1 µM
[10] = target: Ribosomal protein S6 kinase alpha-3 (Homo sapiens, UniProt P51812); assay: Selectivity interaction (ActivX KiNativ screen (kinase selectivity in THP-1 cell lysates)) EUB0000639a RPS6KA3; type: subcellular; conditions: lysate, at 0.04 µM
Chain of Ribosomal protein S6 kinase alpha-3 (P51812 whole entry): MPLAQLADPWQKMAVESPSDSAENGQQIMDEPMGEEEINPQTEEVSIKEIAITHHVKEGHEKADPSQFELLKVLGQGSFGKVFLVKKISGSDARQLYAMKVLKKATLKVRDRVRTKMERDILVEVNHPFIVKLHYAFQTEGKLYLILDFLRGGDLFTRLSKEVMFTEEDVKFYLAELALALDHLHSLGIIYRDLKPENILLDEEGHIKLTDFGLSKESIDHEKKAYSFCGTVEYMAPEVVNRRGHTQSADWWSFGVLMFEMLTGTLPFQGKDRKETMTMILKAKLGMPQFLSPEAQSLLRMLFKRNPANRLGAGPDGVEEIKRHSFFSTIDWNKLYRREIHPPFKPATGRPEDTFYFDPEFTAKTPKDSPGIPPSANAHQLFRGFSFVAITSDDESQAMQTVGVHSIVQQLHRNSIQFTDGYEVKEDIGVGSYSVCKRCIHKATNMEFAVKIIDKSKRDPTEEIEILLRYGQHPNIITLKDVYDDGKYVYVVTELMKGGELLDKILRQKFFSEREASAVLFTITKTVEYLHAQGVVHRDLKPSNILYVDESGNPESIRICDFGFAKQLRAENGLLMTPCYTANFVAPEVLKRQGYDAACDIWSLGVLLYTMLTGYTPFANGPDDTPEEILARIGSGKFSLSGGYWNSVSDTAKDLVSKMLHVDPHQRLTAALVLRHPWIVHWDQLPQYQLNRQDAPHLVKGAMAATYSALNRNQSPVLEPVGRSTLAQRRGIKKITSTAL

[11] = target: Cyclin-dependent kinase 5 (Homo sapiens, UniProt Q00535); assay: Selectivity interaction (Kinase panel (enzymatic assay)) EUB0000595a CDK5
[12] = target: Casein kinase I isoform gamma-1 (Homo sapiens) (UniProt Q9HCP0); assay: Selectivity interaction (KinomeScan (DiscoverX)) EUB0000092b CSNK1G1; conditions: at 10 µM
Chain of Casein kinase I isoform gamma-1 (Homo sapiens) (Q9HCP0 whole entry, looked up, canonical isoform): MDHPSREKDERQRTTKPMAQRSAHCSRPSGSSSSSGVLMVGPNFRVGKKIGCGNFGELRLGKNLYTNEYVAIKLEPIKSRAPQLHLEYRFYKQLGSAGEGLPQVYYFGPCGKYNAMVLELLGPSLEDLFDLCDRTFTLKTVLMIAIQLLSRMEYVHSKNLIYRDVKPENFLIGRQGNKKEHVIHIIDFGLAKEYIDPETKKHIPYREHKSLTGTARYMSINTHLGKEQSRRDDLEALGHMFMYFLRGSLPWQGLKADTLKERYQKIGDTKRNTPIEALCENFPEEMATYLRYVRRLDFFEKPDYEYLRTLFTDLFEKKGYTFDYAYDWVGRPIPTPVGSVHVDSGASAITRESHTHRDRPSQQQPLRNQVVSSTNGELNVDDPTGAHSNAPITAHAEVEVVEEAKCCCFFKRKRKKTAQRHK

[13] = target: Serine/threonine-protein kinase pim-1 (Homo sapiens, UniProt P11309); assay: Selectivity interaction (KinomeScan (DiscoverX)) EUB0000092b PIM1; conditions: at 10 µM
[14] = target: Proto-oncogene tyrosine-protein kinase receptor Ret (Homo sapiens, UniProt P07949); assay: (§1) Selectivity interaction (Ambit KINOMEscan and KiNATiv profiling in Jurkat cells) EUB0000090b RET; type: cell-based; conditions: at 1 µM
Chain of Proto-oncogene tyrosine-protein kinase receptor Ret (P07949 whole entry): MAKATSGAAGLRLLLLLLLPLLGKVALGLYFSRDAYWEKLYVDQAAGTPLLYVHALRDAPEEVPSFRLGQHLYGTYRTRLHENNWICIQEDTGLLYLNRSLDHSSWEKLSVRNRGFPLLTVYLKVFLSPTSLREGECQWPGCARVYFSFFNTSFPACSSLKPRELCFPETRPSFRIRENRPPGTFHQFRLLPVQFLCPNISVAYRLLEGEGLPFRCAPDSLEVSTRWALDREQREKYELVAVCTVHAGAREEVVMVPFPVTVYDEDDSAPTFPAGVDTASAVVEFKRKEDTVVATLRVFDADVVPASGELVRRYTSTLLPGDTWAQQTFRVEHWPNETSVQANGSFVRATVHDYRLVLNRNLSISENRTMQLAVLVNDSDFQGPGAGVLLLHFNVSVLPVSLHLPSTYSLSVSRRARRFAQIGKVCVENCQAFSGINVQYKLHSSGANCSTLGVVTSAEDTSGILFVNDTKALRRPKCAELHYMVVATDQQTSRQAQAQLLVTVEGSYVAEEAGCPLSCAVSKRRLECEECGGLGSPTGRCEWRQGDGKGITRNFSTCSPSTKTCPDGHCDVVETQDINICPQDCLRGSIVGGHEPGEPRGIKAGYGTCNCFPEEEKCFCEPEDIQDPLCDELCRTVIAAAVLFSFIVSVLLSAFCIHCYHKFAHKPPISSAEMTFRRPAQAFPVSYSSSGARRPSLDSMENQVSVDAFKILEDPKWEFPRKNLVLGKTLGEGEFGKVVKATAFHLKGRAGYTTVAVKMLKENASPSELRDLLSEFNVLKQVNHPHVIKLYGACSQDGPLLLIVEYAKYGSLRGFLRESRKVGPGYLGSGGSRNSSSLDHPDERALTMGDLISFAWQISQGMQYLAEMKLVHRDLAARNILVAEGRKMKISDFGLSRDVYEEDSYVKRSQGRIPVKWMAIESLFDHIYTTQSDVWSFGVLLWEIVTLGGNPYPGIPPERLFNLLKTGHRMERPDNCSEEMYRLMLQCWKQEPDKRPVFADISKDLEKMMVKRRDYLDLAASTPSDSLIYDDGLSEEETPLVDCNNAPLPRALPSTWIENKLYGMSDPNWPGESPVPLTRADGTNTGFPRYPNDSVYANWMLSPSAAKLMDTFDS

[15] = test system: Proto-oncogene tyrosine-protein kinase receptor Ret (Homo sapiens), P07949 [V804M]; assay: as §1; type: cell-based; conditions: at 1 µM
[16] = test system: Proto-oncogene tyrosine-protein kinase receptor Ret (Homo sapiens), P07949 [M918T]; assay: as §1; type: cell-based; conditions: at 1 µM
[17] = test system: Proto-oncogene tyrosine-protein kinase receptor Ret (Homo sapiens), P07949 [V804L]; assay: as §1; type: cell-based; conditions: at 1 µM
[18] = target: T3, Serine/threonine-protein kinase PAK 4; assay: Selectivity interaction (KinomeScan (DiscoverX)) EUB0000045b PAK4
[19] = target: Dual specificity protein kinase CLK4 (Homo sapiens, UniProt Q9HAZ1); assay: Selectivity interaction (KinomeScan (DiscoverX)) EUB0000045b CLK4
Chain of Dual specificity protein kinase CLK4 (Q9HAZ1 whole entry, looked up): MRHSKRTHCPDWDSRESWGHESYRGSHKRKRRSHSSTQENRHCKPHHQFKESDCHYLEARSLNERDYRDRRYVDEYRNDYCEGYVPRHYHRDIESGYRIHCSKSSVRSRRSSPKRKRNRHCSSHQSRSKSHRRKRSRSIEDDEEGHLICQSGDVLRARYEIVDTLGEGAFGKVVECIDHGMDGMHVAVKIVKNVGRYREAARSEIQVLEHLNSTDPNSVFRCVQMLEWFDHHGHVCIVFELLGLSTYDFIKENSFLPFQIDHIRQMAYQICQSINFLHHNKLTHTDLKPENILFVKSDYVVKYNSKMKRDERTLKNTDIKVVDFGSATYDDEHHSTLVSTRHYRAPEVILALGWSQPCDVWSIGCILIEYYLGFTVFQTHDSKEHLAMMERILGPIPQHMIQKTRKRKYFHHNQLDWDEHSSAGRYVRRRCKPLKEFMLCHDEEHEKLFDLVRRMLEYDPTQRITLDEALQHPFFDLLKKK

[20] = target: Serine/threonine-protein kinase 24 (Homo sapiens) (UniProt Q9Y6E0); assay: Selectivity interaction (KinomeScan (DiscoverX)) EUB0000618a STK24; conditions: at 10 µM
[21] = target: Serine/threonine-protein kinase 25 (Homo sapiens) (UniProt O00506); assay: Selectivity interaction (KinomeScan (DiscoverX)) EUB0000618a STK25; conditions: at 10 µM
Chain of Serine/threonine-protein kinase 25 (Homo sapiens) (O00506 whole entry, looked up): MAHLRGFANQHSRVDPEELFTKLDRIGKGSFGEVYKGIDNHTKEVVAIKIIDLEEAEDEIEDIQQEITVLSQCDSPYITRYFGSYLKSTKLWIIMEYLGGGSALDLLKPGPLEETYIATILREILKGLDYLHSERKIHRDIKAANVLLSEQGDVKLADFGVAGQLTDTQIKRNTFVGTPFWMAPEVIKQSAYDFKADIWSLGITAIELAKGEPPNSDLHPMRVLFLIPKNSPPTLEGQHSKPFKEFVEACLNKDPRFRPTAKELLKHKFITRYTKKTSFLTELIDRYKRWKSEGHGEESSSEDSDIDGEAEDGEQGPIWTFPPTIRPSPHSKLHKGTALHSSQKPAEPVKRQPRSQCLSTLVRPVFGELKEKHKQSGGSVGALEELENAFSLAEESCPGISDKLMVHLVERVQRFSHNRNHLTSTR

[22] = target: Serine/threonine-protein kinase SBK1 (Homo sapiens) (UniProt Q52WX2); conditions: at 10 µM
[23] = target: Microtubule-associated serine/threonine-protein kinase 1 (Homo sapiens) (UniProt Q9Y2H9); conditions: at 10 µM
[24] = target: Protein kinase C beta type (Homo sapiens, UniProt P05771); assay: Selectivity interaction (ActivX KiNativ screen (ex vivo kinase selectivity in human PBMCs)) EUB0001619a PRKCB; type: cell-based; conditions: PBMC, at 1 µM
[25] = target: Non-receptor tyrosine-protein kinase TYK2 (Homo sapiens, UniProt P29597); assay: Selectivity interaction (KinomeScan (DiscoverX)) EUB0000695a TYK2; conditions: at 100 nM
[26] = target: T1, Tyrosine-protein kinase JAK1; assay: Selectivity interaction (KinomeScan (DiscoverX)) EUB0000607a JAK1; conditions: at 10 µM
[27] = target: T4, Homeodomain-interacting protein kinase 4 (Homo sapiens) (UniProt Q8NE63); assay: Selectivity interaction (Kinase panel (Z-LYTE Assay)) EUB0001632a HIPK4; conditions: at 10 µM
T4 sequence (whole entry): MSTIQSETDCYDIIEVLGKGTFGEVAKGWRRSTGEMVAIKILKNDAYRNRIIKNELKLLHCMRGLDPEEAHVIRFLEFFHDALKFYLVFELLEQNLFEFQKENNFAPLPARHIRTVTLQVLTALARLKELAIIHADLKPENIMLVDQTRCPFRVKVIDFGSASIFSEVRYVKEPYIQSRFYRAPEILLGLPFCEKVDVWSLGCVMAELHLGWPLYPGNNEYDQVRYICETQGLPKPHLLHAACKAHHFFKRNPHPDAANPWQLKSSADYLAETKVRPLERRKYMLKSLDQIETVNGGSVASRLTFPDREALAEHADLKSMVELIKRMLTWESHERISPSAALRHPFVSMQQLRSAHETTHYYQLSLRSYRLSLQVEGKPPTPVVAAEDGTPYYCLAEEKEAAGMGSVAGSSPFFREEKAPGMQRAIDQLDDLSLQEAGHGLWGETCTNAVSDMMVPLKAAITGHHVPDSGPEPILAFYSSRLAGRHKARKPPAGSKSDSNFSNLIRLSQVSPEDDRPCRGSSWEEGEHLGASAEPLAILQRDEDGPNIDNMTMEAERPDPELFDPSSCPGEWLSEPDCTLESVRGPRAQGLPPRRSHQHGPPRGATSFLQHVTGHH

T1 sequence (P23458 whole entry): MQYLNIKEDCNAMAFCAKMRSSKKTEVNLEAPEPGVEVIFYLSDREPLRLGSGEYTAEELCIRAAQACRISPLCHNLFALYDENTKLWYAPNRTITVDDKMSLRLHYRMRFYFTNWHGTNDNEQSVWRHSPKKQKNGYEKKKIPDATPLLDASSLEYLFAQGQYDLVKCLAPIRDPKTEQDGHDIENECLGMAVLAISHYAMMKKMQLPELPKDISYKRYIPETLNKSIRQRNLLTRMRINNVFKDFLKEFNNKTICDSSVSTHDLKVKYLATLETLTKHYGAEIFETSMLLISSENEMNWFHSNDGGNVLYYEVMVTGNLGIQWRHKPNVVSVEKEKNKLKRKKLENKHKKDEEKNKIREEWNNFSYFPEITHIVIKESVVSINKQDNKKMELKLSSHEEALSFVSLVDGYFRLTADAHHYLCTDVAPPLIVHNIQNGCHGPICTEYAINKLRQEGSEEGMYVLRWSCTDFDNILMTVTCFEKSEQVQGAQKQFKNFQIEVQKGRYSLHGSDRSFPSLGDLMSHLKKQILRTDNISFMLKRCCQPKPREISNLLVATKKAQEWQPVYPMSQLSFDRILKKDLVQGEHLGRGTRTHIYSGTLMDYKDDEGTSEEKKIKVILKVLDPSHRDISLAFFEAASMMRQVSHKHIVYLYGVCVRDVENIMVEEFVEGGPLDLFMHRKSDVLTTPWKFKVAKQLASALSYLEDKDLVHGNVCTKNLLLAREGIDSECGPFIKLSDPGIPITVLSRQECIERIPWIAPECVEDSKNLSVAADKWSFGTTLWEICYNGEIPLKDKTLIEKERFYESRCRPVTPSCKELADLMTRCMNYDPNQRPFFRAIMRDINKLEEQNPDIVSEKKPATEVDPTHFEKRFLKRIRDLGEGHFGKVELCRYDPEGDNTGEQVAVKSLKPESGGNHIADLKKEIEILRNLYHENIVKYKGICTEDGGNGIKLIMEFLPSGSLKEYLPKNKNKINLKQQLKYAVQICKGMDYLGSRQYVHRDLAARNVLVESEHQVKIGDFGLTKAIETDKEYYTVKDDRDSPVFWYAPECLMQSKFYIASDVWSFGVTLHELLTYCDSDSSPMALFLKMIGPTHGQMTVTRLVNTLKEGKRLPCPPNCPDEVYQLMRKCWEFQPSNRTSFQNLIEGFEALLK

O=C(NOC[C@H](O)CO)c1ccc(F)c(F)c1Nc1ccc(I)cc1F
% of control [1]: 78%

CCc1cc(Nc2nccc(-c3c(-c4ccc(OC)c(C(=O)Nc5c(F)cccc5F)c4)nc4ccccn34)n2)c(OC)cc1N1CCC(N2CCN(S(C)(=O)=O)CC2)CC1
% of inhibition [2]: 43%

CNCCN1CCC(c2cc(CN(C)C(=O)c3cccc(Oc4ccccc4)c3)ccn2)CC1
% activity [3]: > 90%

COc1cc(N(C)c2ccnc3ccc(C(F)(F)F)cc23)cc(OC)c1OC
% binding [4]: 81%

CC(=O)c1cc(-c2ccccc2OCC2CC2)c2ncccn12
% of control [5]: 95%

CCC(=O)N1CC[C@H](Nc2ncnc3c2CN(c2cnc(OC)c(C(F)(F)F)c2)CC3)C1 [LENIOLISIB]
IC50 [6]: > 30 µM

CCN(CC)CCCCNc1ncc2cc(-c3cc(OC)cc(OC)c3)c(NC(=O)NC(C)(C)C)nc2n1
% of control [7]: 100% | % of control [8]: 100%

CC[C@@H]1[C@H](F)C(=O)N[C@@H]1COc1nccc2cc(C(N)=O)c(OC)cc12 [ZIMLOVISERTIB]
% of inhibition [9]: -3.5% | % of inhibition [10]: 14.5%

COCC(=O)NC/C=C/c1ccc2ncnc(Nc3ccc(Oc4ccc(C)nc4)c(C)c3)c2c1 [CP-724714]
IC50 [11]: > 10 µM

CCC(=O)N1CCN(c2ccc(-n3c(=O)ccc4cnc5ccc(-c6cnc7ccccc7c6)cc5c43)cc2C(F)(F)F)CC1
% of control [12]: 100% | % of control [13]: 80%

CN(C)C/C=C/C(=O)Nc1ccc(C(=O)N2CCCC(Nc3ncc(Cl)c(-c4c[nH]c5ccccc45)n3)C2)cc1 (centres undefined)
% of control [14]: 90% | % of control [15]: 89% | % of control [16]: 68% | % of control [17]: 71%

C=CC(=O)Nc1cc(-n2c(=O)ccc3cnc4ccc(-c5ccc(NS(C)(=O)=O)cc5)cc4c32)ccc1C
% of control ([18]; at 1 µM): 100% | % of control ([18]; at 10 µM): 100% | % of control ([19]; at 1 µM): 99% | % of control ([19]; at 10 µM): 85%

O[C@H]1CC[C@H](Nc2ncc3nc(Nc4c(F)cc(F)cc4F)n([C@H]4CCOC4)c3n2)CC1
% of control [20]: 88% | % of control [21]: 64%

Cc1cc([C@@H](C)Nc2ccccc2C(=O)O)c2nc(N3CCOCC3)cc(=O)n2c1 [AZD-6482]
% of control [22]: 100% | % of control [23]: 100%

N#Cc1cccc(-c2c[nH]c3ncnc(N4CCOCC4)c23)c1
% of inhibition [24]: 57%

Cc1cc(F)c(C(=O)Nc2cccc(-c3nncn3C(C)C)n2)cc1-n1cnc(C2CC2)c1
% of control [25]: 81%

CNC(=O)Nc1ccc(-c2nc(N3CC4CCC(C3)O4)c3cnn(C4CCC5(CC4)OCCO5)c3n2)cc1
% of control [26]: 82%

Cn1cc(-n2cnc3c(NCc4nc5cc(Cl)c(Cl)cc5[nH]4)nc(N4CCOCC4)nc32)cn1
% of control [27]: 6.45%

— ChEMBL document CHEMBL5465560, “Selectivity Literature for EUbOPEN Chemogenomic Library” (2024)
